Structures are written as SMILES.

The values that follow come from patent US20040115822A1, “Methods of measuring the dissolution rate of an analyte in a non-aqueous liquid composition” (priority 2002, published 2004).

The nature of this series: Solubility of CCFA as a function of pH. The class given is physicochemical. The following applies: below pH 5. The source says: In this example, CCFA was employed as the analyte. The solubility of CCFA varies as a function of pH.

For the compound `CO/N=C(\C(=O)N[C@@H]1C(=O)N2C(C(=O)O)=C(CSC(=O)c3ccco3)CS[C@H]12)c1csc(N)n1` [CCFA, ceftiofur crystalline free acid], the “solubility of CCFA” value was “relatively insoluble”.
